Assay results from publication PMC10866072, “Design, synthesis, molecular modelling and biological evaluation of novel 6-amino-5-cyano-2-thiopyrimidine derivatives as potent anticancer agents against leukemia and apoptotic inducers” (Journal of Enzyme Inhibition and Medicinal Chemistry, 2024).

Legend:
SK-OV-3 = assay type: cell-based; conditions: Homo sapiens, one dose 10^-5 M, 48 h
MALME-3M = assay type: cell-based; conditions: Homo sapiens, one dose 10^-5 M, 48 h
SNB-19 = assay type: cell-based; conditions: Homo sapiens, one dose 10^-5 M, 48 h, read-out: % growth
A498 = assay type: cell-based; conditions: Homo sapiens, one dose 10^-5 M, 48 h
MOLT-4 = assay type: cell-based; conditions: Homo sapiens, one dose 10^-5 M, 48 h, read-out: % growth
EKVX = assay type: cell-based; conditions: Homo sapiens, one dose 10^-5 M, 48 h
NCI-H23 = assay type: cell-based; conditions: Homo sapiens, one dose 10^-5 M, 48 h, read-out: % growth
ACHN = assay type: cell-based; conditions: Homo sapiens, one dose 10^-5 M, 48 h
HS 578T = assay type: cell-based; conditions: Homo sapiens; one dose 10^-5 M, 48 h; HS 578T; read-out: % growth
HOP-92 = assay type: cell-based; conditions: Homo sapiens, one dose 10^-5 M, 48 h
SF-295 = assay type: cell-based; conditions: Homo sapiens, one dose 10^-5 M, 48 h
HOP-62 = assay type: cell-based; conditions: Homo sapiens, one dose 10^-5 M, 48 h
SK-MEL-2 = assay type: cell-based; conditions: Homo sapiens, one dose 10^-5 M, 48 h
CCRF-CEM = assay type: cell-based; conditions: Homo sapiens, one dose 10^-5 M, 48 h
MDA-MB-231/ATCC = assay type: cell-based; conditions: Homo sapiens, one dose 10^-5 M, 48 h
SR = assay type: cell-based; conditions: Homo sapiens, one dose 10^-5 M, 48 h
OVCAR-5 = assay type: cell-based; conditions: Homo sapiens, one dose 10^-5 M, 48 h
M14 = assay type: cell-based; conditions: Homo sapiens, one dose 10^-5 M, 48 h
DU-145 = assay type: cell-based; conditions: Homo sapiens, one dose 10^-5 M, 48 h
MDA-MB-468 = assay type: cell-based; conditions: Homo sapiens, one dose 10^-5 M, 48 h
U251 = assay type: cell-based; conditions: Homo sapiens, U-251, one dose 10^-5 M, 48 h
OVCAR-4 = assay type: cell-based; conditions: Homo sapiens, one dose 10^-5 M, 48 h
SF-268 = assay type: cell-based; conditions: Homo sapiens, one dose 10^-5 M, 48 h, read-out: % growth
HCT-15 = assay type: cell-based; conditions: Homo sapiens, one dose 10^-5 M, 48 h, read-out: % growth
TK-10 = assay type: cell-based; conditions: Homo sapiens, one dose 10^-5 M, 48 h
SK-MEL-5 = assay type: cell-based; conditions: Homo sapiens, one dose 10^-5 M, 48 h, read-out: % growth
786-0 = assay type: cell-based; conditions: Homo sapiens, one dose 10^-5 M, 48 h
SK-MEL-28 = assay type: cell-based; conditions: Homo sapiens, one dose 10^-5 M, 48 h
UACC-62 = assay type: cell-based; conditions: Homo sapiens, one dose 10^-5 M, 48 h
MDA-MB-435 = assay type: cell-based; conditions: Homo sapiens, one dose 10^-5 M, 48 h, read-out: % growth
KM12 = assay type: cell-based; conditions: Homo sapiens, one dose 10^-5 M, 48 h
HL-60(TB) = assay type: cell-based; conditions: Homo sapiens, one dose 10^-5 M, 48 h
HCT-116 = assay type: cell-based; conditions: Homo sapiens, one dose 10^-5 M, 48 h, read-out: % growth
T-47D = assay type: cell-based; conditions: Homo sapiens, T47D, one dose 10^-5 M, 48 h, read-out: % growth
SF-539 = assay type: cell-based; conditions: Homo sapiens, one dose 10^-5 M, 48 h
OVCAR-3 = assay type: cell-based; conditions: Homo sapiens, one dose 10^-5 M, 48 h
LOX IMVI = assay type: cell-based; conditions: Homo sapiens, one dose 10^-5 M, 48 h, read-out: % growth
HT29 = assay type: cell-based; conditions: Homo sapiens, HT-29, one dose 10^-5 M, 48 h
MCF7 = assay type: cell-based; conditions: Homo sapiens, one dose 10^-5 M, 48 h, read-out: % growth
[1] = test system: full NCI 60 cell lines panel; conditions: for activity at 10 µM: Homo sapiens, 60 cell, 48 h, read-out: Mean % growth
IGROV1 = assay type: cell-based; conditions: Homo sapiens, IGROV-1, one dose 10^-5 M, 48 h, read-out: % growth
RXF 393 = assay type: cell-based; conditions: Homo sapiens, RXF 393, 48 h, one dose 10^-5 M, 48 h, read-out: % growth
NCI-H226 = assay type: cell-based; conditions: Homo sapiens, one dose 10^-5 M, 48 h
A549/ATCC = assay type: cell-based; conditions: Homo sapiens, one dose 10^-5 M, 48 h
PC-3 = assay type: cell-based; conditions: Homo sapiens, one dose 10^-5 M, 48 h
UACC-257 = assay type: cell-based; conditions: Homo sapiens, one dose 10^-5 M, 48 h
CAKI-1 = assay type: cell-based; conditions: Homo sapiens, CAKI-1, 48 h, one dose 10^-5 M, 48 h
NCI/ADR-RES = assay type: cell-based; conditions: Homo sapiens, one dose 10^-5 M, 48 h
SN12C = assay type: cell-based, human; conditions: Homo sapiens, one dose 10^-5 M, 48 h
K-562 = assay type: cell-based; conditions: Homo sapiens, K562, one dose 10^-5 M, 48 h
OVCAR-8 = assay type: cell-based; conditions: Homo sapiens, one dose 10^-5 M, 48 h
UO-31 = assay type: cell-based; conditions: Homo sapiens, UO-31, 48 h, one dose 10^-5 M, 48 h
NCI-H522 = assay type: cell-based; conditions: Homo sapiens, one dose 10^-5 M, 48 h
COLO 205 = assay type: cell-based; conditions: Homo sapiens, one dose 10^-5 M, 48 h
RPMI-8226 = assay type: cell-based; conditions: Homo sapiens, one dose 10^-5 M, 48 h
BT-549 = assay type: cell-based; conditions: Homo sapiens, one dose 10^-5 M, 48 h
SW-620 = assay type: cell-based; conditions: Homo sapiens, one dose 10^-5 M, 48 h
HCC-2998 = assay type: cell-based; conditions: Homo sapiens, one dose 10^-5 M, 48 h
NCI-H460 = assay type: cell-based; conditions: Homo sapiens, one dose 10^-5 M, 48 h, read-out: % growth

Compound `N=C(NN=Cc1ccc([N+](=O)[O-])cc1)c1c(N)nc(S)nc1-c1ccc(Cl)cc1Cl` [Compound 4o, 4-amino-6–(2,4-dichlorophenyl)-2-mercapto-N'-[(4-nitrophenyl)methylene] pyrimidine-5-carboximidohydrazide] has a % growth at 10 µM (SK-OV-3) of 89.1%, a % growth at 10 µM (MALME-3M) of 73% and an activity at 10 µM (SNB-19) of 74.9%. For the same compound, the % growth at 10 µM (A498) was 160%, the activity at 10 µM (MOLT-4) was 94% and the % cell growth at 10 µM (EKVX) was 98.9%. For the same compound, the activity at 10 µM (NCI-H23) was 90.2%, the % growth at 10 µM (ACHN) was 88.8% and the activity at 10 µM (HS 578T) was 87.1%. The % growth at 10 µM (HOP-92) was 2.04%, the % cell growth at 10 µM (SF-295) was 52.4% and the % growth at 10 µM (HOP-62) was 57%. The % growth at 10 µM (SK-MEL-2) was 93.4%, the % cell growth at 10 µM (CCRF-CEM) was 106% and the % growth at 10 µM (MDA-MB-231/ATCC) was 77.5%. It also gave a percent cell growth at 10 µM (SR) of 76.8%, a percent cell growth at 10 µM (OVCAR-5) of 111% and a % growth at 10 µM (M14) of 102%. For the same compound, the % growth at 10 µM (DU-145) was 115%, the percent cell growth at 10 µM (MDA-MB-468) was 90.8% and the % growth at 10 µM (U251) was 67%. The % growth at 10 µM (OVCAR-4) was 111%, the activity at 10 µM (SF-268) was 94.9% and the activity at 10 µM (HCT-15) was 103%. For the same compound, the % cell growth at 10 µM (TK-10) was 142%, the activity at 10 µM (SK-MEL-5) was 104% and the % growth at 10 µM (786-0) was 54.1%. For the same compound, the % cell growth at 10 µM (SK-MEL-28) was 113%, the % growth at 10 µM (UACC-62) was 84.7% and the activity at 10 µM (MDA-MB-435) was 108%. It also gave a % growth at 10 µM (KM12) of 108%, a % growth at 10 µM (HL-60(TB)) of 103% and an activity at 10 µM (HCT-116) of 85.2%. It also gave an activity at 10 µM (T-47D) of 95.3%, a % growth at 10 µM (SF-539) of 74.7% and a % growth at 10 µM (OVCAR-3) of 110%. It also gave an activity at 10 µM (LOX IMVI) of 96.5%, a % growth at 10 µM (HT29) of 116% and an activity at 10 µM (MCF7) of 88.2%. The activity at 10 µM [1] was 93.5%, the activity at 10 µM (IGROV1) was 94.9% and the activity at 10 µM (RXF 393) was 73%. It also gave a % growth at 10 µM (NCI-H226) of 82.1%, a % growth at 10 µM (A549/ATCC) of 101% and a percent cell growth at 10 µM (PC-3) of 96.8%. The percent cell growth at 10 µM (UACC-257) was 104%, the % growth at 10 µM (CAKI-1) was 78.8% and the cell growth percent at 10 µM (NCI/ADR-RES) was 105%. It also gave a % growth at 10 µM (SN12C) of 96.1%, a % growth at 10 µM (K-562) of 95% and a % growth of cells at 10 µM (OVCAR-8) of 98.4%. The % cell growth at 10 µM (UO-31) was 98.3%, the % growth at 10 µM (NCI-H522) was 78.5% and the % growth at 10 µM (COLO 205) was 115%. For the same compound, the % growth at 10 µM (RPMI-8226) was 97.3%, the % cell growth at 10 µM (BT-549) was 75.7% and the % growth at 10 µM (SW-620) was 108%. For the same compound, the % growth at 10 µM (HCC-2998) was 106% and the activity at 10 µM (NCI-H460) was 114%.
Work on `COc1ccc(C=NNC(=N)c2c(N)nc(S)nc2-c2ccc(Cl)cc2Cl)cc1` [Compound 4p, 4-amino-6–(2,4-dichlorophenyl)-2-mercapto-N'-[(4-methoxyphenyl)methylene] pyrimidine-5-carboximidohydrazide] yielded a % growth at 10 µM (SK-OV-3) of 108%, a % growth at 10 µM (MALME-3M) of 89.4% and an activity at 10 µM (SNB-19) of 93%. It also gave a % growth at 10 µM (A498) of 138%, an activity at 10 µM (MOLT-4) of 95.7% and a % cell growth at 10 µM (EKVX) of 108%. The activity at 10 µM (NCI-H23) was 100%, the % growth at 10 µM (ACHN) was 110% and the activity at 10 µM (HS 578T) was 105%. It also gave a % growth at 10 µM (HOP-92) of 74.8%, a % cell growth at 10 µM (SF-295) of 85.8% and a % growth at 10 µM (HOP-62) of 90.2%. It also gave a % growth at 10 µM (SK-MEL-2) of 115%, a % cell growth at 10 µM (CCRF-CEM) of 99.1% and a % growth at 10 µM (MDA-MB-231/ATCC) of 90.5%. The percent cell growth at 10 µM (SR) was 97.5%, the percent cell growth at 10 µM (OVCAR-5) was 117% and the % growth at 10 µM (M14) was 107%. For the same compound, the % growth at 10 µM (DU-145) was 110%, the percent cell growth at 10 µM (MDA-MB-468) was 105% and the % growth at 10 µM (U251) was 103%. For the same compound, the % growth at 10 µM (OVCAR-4) was 122%, the activity at 10 µM (SF-268) was 104% and the activity at 10 µM (HCT-15) was 106%. For the same compound, the % cell growth at 10 µM (TK-10) was 143%, the activity at 10 µM (SK-MEL-5) was 105% and the % growth at 10 µM (786-0) was 90.2%. For the same compound, the % cell growth at 10 µM (SK-MEL-28) was 112%, the % growth at 10 µM (UACC-62) was 97.2% and the activity at 10 µM (MDA-MB-435) was 113%. It also gave a % growth at 10 µM (KM12) of 104%, a % growth at 10 µM (HL-60(TB)) of 96.9% and an activity at 10 µM (HCT-116) of 99.8%. The activity at 10 µM (T-47D) was 100%, the % growth at 10 µM (SF-539) was 96.8% and the % growth at 10 µM (OVCAR-3) was 113%. For the same compound, the activity at 10 µM (LOX IMVI) was 103%, the % growth at 10 µM (HT29) was 106% and the activity at 10 µM (MCF7) was 91.5%. For the same compound, the activity at 10 µM [1] was 104%, the “activity on all 60 cancer cell lines tested (in words)” value ([1]; one dose) was “weak activity” and the activity at 10 µM (IGROV1) was 108%. The activity at 10 µM (RXF 393) was 94.5%, the % growth at 10 µM (NCI-H226) was 97.2% and the % growth at 10 µM (A549/ATCC) was 102%. For the same compound, the percent cell growth at 10 µM (PC-3) was 98.9%, the percent cell growth at 10 µM (UACC-257) was 103% and the % growth at 10 µM (CAKI-1) was 97.3%. For the same compound, the cell growth percent at 10 µM (NCI/ADR-RES) was 114%, the % growth at 10 µM (SN12C) was 108% and the % growth at 10 µM (K-562) was 102%. It also gave a % growth of cells at 10 µM (OVCAR-8) of 103%, a % cell growth at 10 µM (UO-31) of 97.7% and a % growth at 10 µM (NCI-H522) of 97.5%. For the same compound, the % growth at 10 µM (COLO 205) was 127%, the % growth at 10 µM (RPMI-8226) was 99.4% and the % cell growth at 10 µM (BT-549) was 95.6%. It also gave a % growth at 10 µM (SW-620) of 105%, a % growth at 10 µM (HCC-2998) of 118% and an activity at 10 µM (NCI-H460) of 113%.
